Assay results as given in US20240294508A1, “RIP1 MODULATORS INCLUDING AZETIDINE CYCLIC UREAS, PREPARATIONS, AND USES THEREOF” (SIRONAX LTD., priority 2021, published 2024).
pEC50: −log10 of the molar value.

System: HT-29 cells
Assay: HT29 cells 0FBS assay in vitro: TNF-α/SMAC mimetic/zVAD-FMK induced necroptosis, CellTiter-Glo cell viability (RIP1 inhibitory activity)
Format: cell-based
Conditions: Homo sapiens, FBS free medium, TNF-α (10 ng/ml) + SMAC mimetic (6 uM) + zVAD-FMK (10 μM), 20 hours, geometric mean EC50
Outline: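 HT-29 cells (5,000/well, overnight) switched to FBS-free McCOY's 5A with TNF-α (10 ng/ml), SMAC mimetic (6 uM) and zVAD-FMK (10 μM) to drive necroptosis, plus compound, for 20 hours at 37° C. Viability read by CellTiter-Glo luminescence; geometric mean EC50 from 10-point duplicate dose-response.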

Row | Structure (SMILES) | pEC50
1 | Cc1cnn(C)c1-c1cnc(OC2CN(C(=O)N3N=CC[C@H]3c3cc(F)cc(F)c3)C2)s1 [Compound 154, (S)-(5-(3,5-difluorophenyl)-4,5-dihydro-1H-pyrazol-1-yl)(3-((5-(1,4-dimethyl-1H-pyrazol-5-yl)thiazol-2-yl)oxy)azetidin-1-yl)methanone] | 7.00 to 10.00
2 | CNC(=O)c1c(C)nn(-c2cc(OC3CN(C(=O)N4N=CC[C@H]4c4ccccc4)C3)c(F)cn2)c1C [Compound 78] | 7.00 to 10.00
